In ChEMBL document CHEMBL1201862, “PubChem BioAssay data set” (2004):
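Tested at 5 concentrations; 48 h exposure; 96-well plates; endpoints linearly interpolated, else capped at highest concentration. GI50 = concentration required for 50% inhibition of growth.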 The source made the active and inactive calls. Cut-off read from the data, not from the text of the source: active = GI50 up to about 1.1 µM and inactive = higher.

Experiments:
Experiment in all cases: NCI-60 cell line screen, 48 h
SK-MEL-2 = system: SK-MEL-2
UACC-62 = system: UACC-62
NCI-H522 = system: NCI-H522
SNB-19 = system: SNB-19
DU-145 = system: DU-145
K562 = system: K562
NCI/ADR-RES = system: NCI/ADR-RES
SNB-75 = system: SNB-75
SF-295 = system: SF-295
LOX IMVI = system: LOX IMVI
CAKI-1 = system: CAKI-1
SW-620 = system: SW-620
OVCAR-4 = system: OVCAR-4
MCF7 = system: MCF7
HL-60 = system: HL-60
UACC-257 = system: UACC-257
MDA-MB-435 = system: MDA-MB-435
NCI-H460 = system: NCI-H460
A549 = system: A549
COLO 205 = system: COLO 205

Row | Compound | GI50 (SK-MEL-2) | GI50 (UACC-62) | GI50 (NCI-H522) | GI50 (SNB-19) | GI50 (DU-145) | GI50 (K562) | GI50 (NCI/ADR-RES) | GI50 (SNB-75) | GI50 (SF-295) | GI50 (LOX IMVI) | GI50 (CAKI-1) | GI50 (SW-620) | GI50 (OVCAR-4) | GI50 (MCF7) | GI50 (HL-60) | GI50 (UACC-257) | GI50 (MDA-MB-435) | GI50 (NCI-H460) | GI50 (A549) | GI50 (COLO 205)
1 | CC(=O)NC1C(OCc2ccccc2)OC(CO)C(O)C1OC(C)C(=O)NC(C(=O)NC(CCC(=O)NCCCCNc1c2ccccc2nc2cccc([N+](=O)[O-])c12)C(N)=O)C(C)C (stereo not given) | 2520 nM (inactive) | 2090 nM (inactive) | 186 nM (active) | 4840 nM (inactive) | 2550 nM (inactive) | 458 nM (active) | 49200 nM (inactive) | 2700 nM (inactive) | 4990 nM (inactive) | 1670 nM (inactive) | 3370 nM (inactive) | 993 nM (active) | 1240 nM (inactive) | 499 nM (active) | 1650 nM (inactive) | 3140 nM (inactive) | 1450 nM (inactive) | 887 nM (active) | 1290 nM (inactive) | 1050 nM (active)
2 | C=C1[C@H](OCC(C)C)[C@@H](O)[C@@H](OC(=O)c2cccnc2)C(C)(C)/C=C/[C@H](C)[C@H](OC(C)=O)[C@@]2(O)C[C@@](C)(OC(C)=O)[C@H](OC(=O)c3ccccc3)[C@@H]2[C@H]1OC(C)=O | > 2130 nM (inactive) | 2070 nM (inactive) | 944 nM (active) | 3100 nM (inactive) | 1910 nM (inactive) | 58.5 nM (active) | 1290 nM (inactive) | 134 nM (active) | 371 nM (active) | 1170 nM (inactive) | 488 nM (active) | 502 nM (active) | 1900 nM (inactive) | 1800 nM (inactive) | 69.5 nM (active) | 2900 nM (inactive) | 167 nM (active) | 12.6 nM (active) | 45.9 nM (active) | 71.3 nM (active)
3 | CC1(O)CC2(O)C=CC3=C(C(=O)c4cccc(O)c4C3=O)C2(O)C(=O)C1O (stereo not given) | 4180 nM (inactive) | 2940 nM (inactive) | 124 nM (active) | 16600 nM (inactive) | 18400 nM (inactive) | 940 nM (active) | 7830 nM (inactive) | 8380 nM (inactive) | 13600 nM (inactive) | 1470 nM (inactive) | 910 nM (active) | 750 nM (active) | 1510 nM (inactive) | 624 nM (active) | 478 nM (active) | 1250 nM (inactive) | 1800 nM (inactive) | 15600 nM (inactive) | 9950 nM (inactive) | 152 nM (active)
4 | CC[C@@]1(OC(=O)CCC(=O)O)C(=O)OCc2c1cc1n(c2=O)Cc2cc3ccccc3nc2-1 | 1850 nM (inactive) | 18.7 nM (active) | 103 nM (active) | 51.9 nM (active) | 27.1 nM (active) | 360 nM (active) | 38.3 nM (active) | 104 nM (active) | 25.1 nM (active) | 37.5 nM (active) | 30.9 nM (active) | 150 nM (active) | 1460 nM (inactive) | 28.7 nM (active) | 31.3 nM (active) | 254 nM (active) | 435 nM (active) | < 10 nM (active) | 77.3 nM (active) | 692 nM (active)
5 | COc1cccc(-c2c(-c3ccccc3)[nH]c(C)c2C(=O)ONC(=O)c2ccccc2)c1 | 10400 nM (inactive) | 13800 nM (inactive) | 3780 nM (inactive) | 7890 nM (inactive) | 2590 nM (inactive) | 2890 nM (inactive) | 8930 nM (inactive) | 5860 nM (inactive) | 2550 nM (inactive) | 1890 nM (inactive) | 3180 nM (inactive) | 13600 nM (inactive) | 5050 nM (inactive) | 8850 nM (inactive) | 1930 nM (inactive) | 13500 nM (inactive) | 3340 nM (inactive) | 3190 nM (inactive) | 2290 nM (inactive) | 13700 nM (inactive)
